Key:
[1] = test system: beagle dogs (without left ventricular dysfunction); assay: AF inducibility and LA size/function with phenylephrine on board, dobutamine (Example 4); type: in vivo; conditions: FIG. 6
Experimental: Once sinus rhythm was re-established (cardioversion was used if AF persisted for more than 30 minutes), a third anesthetized ECHO was performed.
The effects of dobutamine on AF inducibility and LA size and function were examined by echocardiography (ECHO) and electrocardiogram (ECG) in beagle dogs with phenylephrine (PE) on board, and compared to the effects of PE alone. The beagle dogs (without left ventricular dysfunction) were assessed for left atrial function and size and for atrial fibrillation inducibility according to the protocols described in Example 3 (experimental design shown in FIG. 5), allowing for the effects of dobutamine to be compared to those of Compound I as shown in Example 3.

[2] = test system: beagle dogs under isoflurane anesthesia, right-atrial burst pacing; assay: AF inducibility and LA size/function with phenylephrine on board (Example 3); conditions: P<0.05

Row | SMILES | AF duration ([1]; dobutamine 1-10 μg/kg/hr infusion with PE) | LV contractility (ΔEF) ([1]; dobutamine 1-10 μg/kg/hr infusion) | SBP, change induced by phenylephrine ([2]; PE 0.5-20 μg/kg/min fixed rate) [%] | LAmin under phenylephrine ([2]; PE 0.5-20 μg/kg/min, from 22.9±2.0) [mL/m^2] | SBP under phenylephrine ([2]; PE 0.5-20 μg/kg/min, from 88.6±2.7) [mmHg] | LAmin, change induced by phenylephrine ([2]; PE 0.5-20 μg/kg/min, increase) [%]
1 | CC(CCc1ccc(O)cc1)NCCc1ccc(O)c(O)c1 (stereo not drawn) [dobutamine] | did not reduce AF duration, and in fact increased it | increase LV contractility |  |  |  | 
2 | CNC[C@H](O)c1cccc(O)c1 [phenylephrine, reference compound] |  |  | 38±7 | 29.3±2.5 | 122.4±6.9 | 28±3

From US20230233545A1, “TREATMENT OF ATRIAL DYSFUNCTION” (MyoKardia, Inc., priority 2020, published 2023)
